Here are results for 28 molecules from patent publication US10947213B1 (Merck Patent GmbH, priority 2015, dated 2021).

The target of this assay is T1, TLR7/NFKb HEK cells (Homo sapiens, UniProt Q9NYK1).
T1 construct: expressed in transfected cells; host or cells: HEK cells (TLR7/NFKb reporter line)
T1 sequence (Q9NYK1 27-1049): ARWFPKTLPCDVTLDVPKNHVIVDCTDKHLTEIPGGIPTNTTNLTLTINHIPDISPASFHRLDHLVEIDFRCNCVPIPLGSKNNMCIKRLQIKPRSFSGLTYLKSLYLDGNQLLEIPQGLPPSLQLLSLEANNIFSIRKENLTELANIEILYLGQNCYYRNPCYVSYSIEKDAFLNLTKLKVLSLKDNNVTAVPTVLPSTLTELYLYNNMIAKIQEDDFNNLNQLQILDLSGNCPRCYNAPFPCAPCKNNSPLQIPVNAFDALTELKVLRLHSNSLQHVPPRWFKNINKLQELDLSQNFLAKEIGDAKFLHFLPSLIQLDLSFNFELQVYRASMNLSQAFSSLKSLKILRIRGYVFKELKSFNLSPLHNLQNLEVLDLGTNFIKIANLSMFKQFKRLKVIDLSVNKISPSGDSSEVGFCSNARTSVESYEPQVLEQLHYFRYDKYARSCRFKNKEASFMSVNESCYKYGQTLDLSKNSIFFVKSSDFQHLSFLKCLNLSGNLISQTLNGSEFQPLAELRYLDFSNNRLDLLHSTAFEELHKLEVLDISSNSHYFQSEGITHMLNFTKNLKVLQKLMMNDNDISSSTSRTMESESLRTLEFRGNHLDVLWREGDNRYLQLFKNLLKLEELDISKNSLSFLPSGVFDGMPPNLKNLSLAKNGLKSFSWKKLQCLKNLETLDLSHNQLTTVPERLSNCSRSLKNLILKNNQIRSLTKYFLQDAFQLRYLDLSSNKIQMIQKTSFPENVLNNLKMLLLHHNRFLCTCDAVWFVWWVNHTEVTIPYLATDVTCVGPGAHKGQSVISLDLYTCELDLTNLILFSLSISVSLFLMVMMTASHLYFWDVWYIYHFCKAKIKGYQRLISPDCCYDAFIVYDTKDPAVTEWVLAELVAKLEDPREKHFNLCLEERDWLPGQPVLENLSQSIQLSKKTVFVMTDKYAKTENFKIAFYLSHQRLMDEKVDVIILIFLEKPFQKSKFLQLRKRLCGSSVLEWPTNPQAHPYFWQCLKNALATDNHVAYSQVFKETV
The assay is described as follows: HEK Cell Assay (TLR7/NFKb reporter, Steady-Glo luciferase readout). The class given is cell-based. The conditions noted are these: 30 min compound preincubation, then R*48 agonist for 5 hours, read-out: Potency. A digest of the protocol: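 Steady-Glo luminescence after 5 h stimulation with R*48 agonist, following 30 min compound preincubation. Assay run in HEK cells carrying a TLR7/NFKb luciferase reporter, plated at 5000 cells/well and grown 24 h at 37° C (10% CO2) before treatment.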

Consider `CC(C(=O)N[C@@H]1C[C@H](C)CN(c2ccc(C(F)(F)F)c3ncccc23)C1)N1CCN(C)CC1` (stereo partly drawn) [Compound 516, 2-(4-Methyl-piperazin-1-yl)-N-[(3R,5S)-5-methyl-1-(8-trifluoromethyl-quinolin-5-yl)-piperidin-3-yl]-propionamide], for which the IC50 is less than 1000 nM.
With `Cc1ncc(N2C[C@@H](C)C[C@@H](NC(=O)[C@@H](O)C3CC3)C2)c2cccnc12` [Compound 559, (S)-2-Cyclopropyl-2-hydroxy-N-[(3R,5S)-5-methyl-1-(8-methyl-[1,7]naphthyridin-5-yl)-piperidin-3-yl]-acetamide] the figure was 1000 to 10000 nM; with `CC(C(=O)N[C@@H]1C[C@H](C)CN(c2ccc(C(F)(F)F)c3ncccc23)C1)N1CCC(O)CC1` (stereo partly drawn) [Compound 289, 2-(4-hydroxypiperidin-1-yl)-N-[(3R,5S)-5-methyl-1-[8-(trifluoromethyl)quinolin-5-yl]piperidin-3-yl]propanamide], less than 1000 nM; with `O=C(NCCN1CCCCC1)C1CCN(c2ccnc3nccnc23)CC1` [Compound 373, 1-Pyrido[2,3-b]pyrazin-8-yl-piperidine-4-carboxylic acid (2-piperidin-1-yl-ethyl)-amide], 1000 to 10000 nM.
Consider `CC(C(=O)N[C@@H]1C[C@H](C)CN(c2ccc(C#N)c3nccnc23)C1)N1CC(F)(F)C1` (stereo partly drawn) [Compound 273, N-[(3R,5S)-1-(8-cyanoquinoxalin-5-yl)-5-methylpiperidin-3-yl]-2-(3,3-difluoroazetidin-1-yl)propanamide], for which the IC50 was 1000 to 10000 nM.
For the molecule `Cc1cc(N2CCC(CNCCN3CCCCC3)CC2)c2cc(F)ccc2n1` [Compound 381, [1-(6-Fluoro-2-methyl-quinolin-4-yl)-piperidin-4-ylmethyl]-(2-piperidin-1-yl-ethyl)-amine], the IC50 was 1000 to 10000 nM.
Turning to `C#CC(=O)N[C@@H]1C[C@H](C)CN(c2ccc(C(F)(F)F)c3ncccc23)C1` [Compound 472, Propynoic acid [(3R,5S)-5-methyl-1-(8-trifluoromethyl-quinolin-5-yl)-piperidin-3-yl]-amide], the IC50 is less than 1000 nM.
With `O=C(NC1CN(c2ccc(C(F)(F)F)c3ncccc23)CC(F)(F)C1)C(O)C1CC1` (stereo not shown) [Compound 513, 2-Cyclopropyl-N-[5,5-difluoro-1-(8-trifluoromethyl-quinolin-5-yl)-piperidin-3-yl]-2-hydroxy-acetamide] the figure was 1000 to 10000 nM; with `O=C(NCC1CCN(c2ccnc3nccnc23)CC1)c1ccccn1` [Compound 392, Pyridine-2-carboxylic acid (1-pyrido[2,3-b]pyrazin-8-yl-piperidin-4-ylmethyl)-amide], more than 10000 nM; with `N#Cc1ccc(N2CC(NC(=O)C(N)C(F)(F)F)CC(C3CC3)C2)c2nccnc12` (single isomer, unassigned) [Compound 177], 1000 to 10000 nM.
In the case of `C[C@H]1C[C@@H](NC(=O)CC(O)C(C)(C)C)CN(c2ccnc3nccnc23)C1` (single isomer, unassigned) [Compound 148], the IC50 was more than 10000 nM.
On to `Cc1cc2c(N3C[C@@H](C)O[C@@H](C)C3)ccnc2n1C` [Compound 46, (2S,6R)-4-(1,2-dimethyl-1H-pyrrolo[2,3-b]pyridin-4-yl)-2,6-dimethylmorpholine], for which the IC50 is more than 10000 nM.
With `C[C@H]1C[C@@H](NC(=O)CC2(C)CCN(C)CC2)CN(c2ccc(C(F)(F)F)c3nccnc23)C1` [Compound 255, 2-(1,4-dimethylpiperidin-4-yl)-N-[(3R,5S)-5-methyl-1-[8-(trifluoromethyl)quinoxalin-5-yl]piperidin-3-yl]acetamide] the figure was less than 1000 nM.
`CCC(C)C(=O)N[C@@H]1C[C@H](C)CN(c2ccnc3nccnc23)C1` (single isomer, unassigned) [Compound 157]: the IC50 was more than 10000 nM.
Take `C[C@H]1C[C@@H](NC2CCN(C)C2=O)CN(c2ccc(Cl)c3ncccc23)C1` (single isomer, unassigned) [Compound 261]: the IC50 was less than 1000 nM.
With `CN1CCC(CNC(=O)C2CN(c3ccc(C#N)c4ncccc34)CC(F)(F)C2)CC1` (single isomer, unassigned) [Compound 546] the figure was less than 1000 nM; with `C[C@H]1C[C@@H](NC(=O)C(N)C(F)(F)F)CN(c2c(F)cc(C#N)c3nccnc23)C1` (single isomer, unassigned) [Compound 345], more than 10000 nM; with `C[C@H]1C[C@@H](NC(=O)CC2CNC2)CN(c2ccc(C(F)F)c3ncccc23)C1` [Compound 312, 2-(azetidin-3-yl)-N-[(3R,5S)-1-[8-(difluoromethyl)quinolin-5-yl]-5-methylpiperidin-3-yl]acetamide], 1000 to 10000 nM.
Regarding `CC(C)[C@H](O)C(=O)NC1CC(C(F)(F)F)CN(c2ccc(C#N)c3nccnc23)C1` (single isomer, unassigned) [Compound 87], the IC50 was less than 1000 nM.
To `CN1CCN(C(=O)CCC(=O)N[C@H]2C[C@@H](C(F)(F)F)CN(c3ccc(C#N)c4ncccc34)C2)CC1` (racemic) [Compound 496, cis-N—[-1-(8-Cyano-quinolin-5-yl)-5-trifluoromethyl-piperidin-3-yl]-4-(4-methyl-piperazin-1-yl)-4-oxo-butyramide] belongs less than 1000 nM; to `C[C@H]1C[C@@H](NC(=O)C2(O)CC2)CN(c2ccc(C#N)c3nccnc23)C1` [Compound 230, N-[(3R,5S)-1-(8-cyanoquinoxalin-5-yl)-5-methylpiperidin-3-yl]-1-hydroxycyclopropane-1-carboxamide], less than 1000 nM.
In the case of `C[C@H]1C[C@@H](NC(=O)CC2(C)CCN(C)CC2)CN(c2ccc(C#N)c3nccnc23)C1` [Compound 233, N-[(3R,5S)-1-(8-cyanoquinoxalin-5-yl)-5-methylpiperidin-3-yl]-2-(1,4-dimethylpiperidin-4-yl)acetamide], the IC50 was less than 1000 nM.
Consider `C[C@H]1C[C@@H](NC(=O)CN2CCN(C)CC2)CN(c2ccc(C#N)c3nccnc23)C1` [Compound 109, N-[(3R,5S)-1-(8-cyanoquinoxalin-5-yl)-5-methylpiperidin-3-yl]-2-(4-methylpiperazin-1-yl)acetamide], for which the IC50 was less than 1000 nM.
With `CN(C)CC(=O)NC1CN(c2ccc(C#N)c3ncccc23)CC(F)(F)C1` (single isomer, unassigned) [Compound 449] the figure was less than 1000 nM; with `Cc1ncc(N2C[C@@H](C)C[C@@H](NC(=O)CC(C)(C)O)C2)c2cccnc12` [Compound 555, 3-Hydroxy-3-methyl-N-[(3R,5S)-5-methyl-1-(8-methyl-[1,7]naphthyridin-5-yl)-piperidin-3-yl]-butyramide], 1000 to 10000 nM; with `CC(C)[C@H](O)C(=O)NC1CC(C2CC2)CN(c2ccc(C#N)c3nccnc23)C1` (single isomer, unassigned) [Compound 174], more than 10000 nM.
To `COc1ccc(N2C[C@@H](C)C[C@@H](NC(=O)[C@@H](O)C(C)C)C2)c2cccnc12` [Compound 188, (2S)-2-hydroxy-N-[(3R,5S)-1-(8-methoxyquinolin-5-yl)-5-methylpiperidin-3-yl]-3-methylbutanamide] belongs less than 1000 nM; to `C[C@H]1C[C@@H](NC(=O)CO)CN(c2ccc(Cl)c3ncccc23)C1` [Compound 263, N-[(3R,5S)-1-(8-chloroquinolin-5-yl)-5-methylpiperidin-3-yl]-2-hydroxyacetamide], less than 1000 nM.
